Source: patent US5218115A, “Cholecystokinin antagonists” (Merck & Co., Inc., priority 1992, dated 1993)
Entries after “also recorded” stand apart in the source; their conditions may differ. Read-outs that look alike come from different tables or passages of the source. Square brackets hold non-standard residues; d marks the D form. Peptide text beside a SMILES is read from it. * marks the point of attachment. sY = N[C@@H](Cc1ccc(OS(=O)(=O)O)cc1)C(=O)O; Cbz = O=C(OCc1ccccc1)*; Boc = CC(C)(C)OC(=O)*

Legend:
[1] = biological target: T1, CCK receptor (brain) (Cavia porcellus, UniProt H0VZC5); assay: CCK Receptor Binding (Brain), inhibition of 125I-CCK-8 binding; set-up: species or system Male Hartley guinea pigs
T1 construct: the cortex was removed and homogenized in 25 mL ice-cold 0.32M sucrose; from tissue; host or cells: guinea pig brain cortex P2 membranes (male Hartley)
T1 sequence (H0VZC5 1-426): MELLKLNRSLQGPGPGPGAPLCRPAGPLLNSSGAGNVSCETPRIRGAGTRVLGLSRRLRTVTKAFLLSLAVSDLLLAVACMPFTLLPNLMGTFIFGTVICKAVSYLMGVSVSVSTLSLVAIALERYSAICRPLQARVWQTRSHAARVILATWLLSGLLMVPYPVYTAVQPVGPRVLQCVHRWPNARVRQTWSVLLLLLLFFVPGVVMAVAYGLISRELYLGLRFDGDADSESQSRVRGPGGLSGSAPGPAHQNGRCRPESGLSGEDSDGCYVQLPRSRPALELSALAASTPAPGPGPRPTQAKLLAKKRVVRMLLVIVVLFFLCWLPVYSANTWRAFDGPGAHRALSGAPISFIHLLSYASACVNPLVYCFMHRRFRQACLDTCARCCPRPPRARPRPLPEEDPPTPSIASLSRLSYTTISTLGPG
Experimental: CCK-8 sulphated was radiolabelled and the binding was performed according to the description for the pancreas method with minor modifications.
Male Hartley guinea pigs (300-500 g) were sacrificed by decapitation and the cortex was removed and homogenized in 25 mL ice-cold 0.32M sucrose. The homogenates were centrifuged at 1000 g for 10 minutes and the resulting supernatant was recentrifuged at 20,000 g for 20 minutes. […] All assays were run in duplicate. The reaction mixtures were incubated at 25° C. for 2 hours and then the reaction was terminated on Whatman GF/C filters by rapid filtration (Brandell 24 well cell Harvester) with 3×5 ml washes of cold 100 mM NaCl. The radioactivity on the filters was then counted with a LKB gamma counter.
(§1) Drug displacement studies were performed with at least 10 concentrations of compounds of formula 1 and the IC50 values were determined by regression analysis.

[2] = tested on: brain CCK (CCK-B); conditions: in words; cited from earlier work
[3] = tested on: CCK receptor; conditions: in words; cited from earlier work
[4] = biological target: T2, CCK receptor (pancreas) (Rattus norvegicus, UniProt P30551); assay: CCK Receptor Binding (Pancreas), inhibition of 125I-CCK-8 binding; set-up: species or system Male Sprague-Dawley rats; conditions: 125I-CCK-8 50 pM, 25° C., 2 hours
T2 construct: The whole pancreas was dissected free of fat tissue and was homogenized; from tissue; host or cells: rat pancreas membranes (male Sprague-Dawley)
T2 sequence (P30551 1-444): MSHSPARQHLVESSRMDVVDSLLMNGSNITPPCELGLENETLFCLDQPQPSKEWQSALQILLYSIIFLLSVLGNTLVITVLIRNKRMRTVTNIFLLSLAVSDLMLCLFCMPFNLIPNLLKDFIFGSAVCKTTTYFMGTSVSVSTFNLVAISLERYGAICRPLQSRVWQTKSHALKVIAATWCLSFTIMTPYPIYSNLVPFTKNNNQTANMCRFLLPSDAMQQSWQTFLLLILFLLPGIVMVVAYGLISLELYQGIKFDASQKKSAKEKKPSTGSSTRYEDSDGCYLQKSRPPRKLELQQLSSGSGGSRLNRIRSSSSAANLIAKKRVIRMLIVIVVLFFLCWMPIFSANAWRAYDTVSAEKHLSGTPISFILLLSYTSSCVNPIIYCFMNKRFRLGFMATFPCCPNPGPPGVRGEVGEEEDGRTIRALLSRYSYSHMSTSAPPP
Experimental: CCK-8 sulphated was radiolabelled with ^125 I-Bolton Hunter reagent (2000 Ci/mmole). Receptor binding was performed according to Chang and Lotti (Proc. Natl. Acad. Sci. 83, 4923-4926, 1986) with minor modifications.
Male Sprague-Dawley rats (150-200 g) were sacrificed by decapitation. The whole pancreas was dissected free of fat tissue and was homogenized in 25 volumes of ice-cold 10 mM Hepes buffer with 0.1% soya bean trypsin inhibitor (pH 7.4 at 25° C.) with a Kinematica Polytron. The homogenates were centrifuged at 47,800 g for 10 min. Pellets were resuspended in 10 volumes of binding assay buffer (20 mM Hepes, 1 mM EGTA, 5 mM MgCl2, 150 mM NaCl, bacitracin 0.25 mg/ml, soya bean trypsin inhibitor 0.1 mg/ml, and bovine serum albumin 2 mg/ml, pH 6.5 at 25° C.) using a teflon homogenizer, 15 strokes at 500 rpm. The homogenate was further diluted in binding assay buffer to give a final concentration of 0.5 mg original wet weight/1 ml buffer. […] All assays were run in duplicate. […] The radioactivity on the filters was counted with a LKB gamma counter.
as §1

[5] = biological target: T3, Gastrin receptor (gastric glands) (Cavia porcellus, UniProt H0VZC5); assay: Gastrin Receptor Binding in Guinea Pig Gastric Glands, 125I-gastrin; set-up: species or system guinea pigs, male Hartley; conditions: 125I-gastrin 0.1 nM, 25° C., 30 minutes, read-out: CCK RECEPTOR BINDING RESULTS IC50, 125I-Gastrin Gastric Glands
T3 construct: from tissue; host or cells: guinea pig gastric mucosal glands (male Hartley)
T3 sequence (H0VZC5 1-426): T1 sequence (H0VZC5 1-426)
Experimental: Gastrin antagonist activity of compounds of Formula I is determined using the following assay.
A. Gastrin Receptor Binding in Guinea Pig Gastric Glands
Guinea pig gastric mucosal glands were prepared by the procedure of Chang et al., Science 230, 177-179 (1985) with slight modification. Gastric mucosa from guinea pigs (300-500 g body weight, male Hartley) were isolated by scraping with a glass slide after washing stomachs in ice-cold, aerated buffer consisting of the following: 130 mM NaCl, 12 mM NaHCO3, 3 mM NaH2 PO4, 3 mM Na2 HPO4, 3 mM K2 HPO4, 2 mM MgSO4, 1 mM CaCl2, 5 mM glucose and 4 mM L-glutamine, 50 mM HEPES, 0.25 mg/ml bacitracin, 0.10 mg/ml soya bean trypsin inhibitor, 0.1 mg/ml bovine serum albumin, at pH 6.5, and then incubated in a 37° C. shaking water bath for 40 minutes in buffer containing 1 mg/ml collagenase and bubbled with 95% O2 and 5% CO2. The tissues were passed twice through a 5 ml syringe to liberate the gastric glands, and then filtered through Nitex #202 gauge nylon mesh. The filtered glands were centrifuged at 272 g for 5 minutes and washed twice by resuspension in 25 ml buffer and centrifugation.
The washed guinea pig gastric glands prepared as above were resuspended in 25 ml of standard buffer. […] The radioactivity on the filters was measured using a LKB gamma counter.

[6] = tested on: gastrin; conditions: in words, in vitro; cited from earlier work
[7] = guinea pig cortex, 125I-CCK-8 50 pM, 25° C., 2 hours, read-out: CCK RECEPTOR BINDING RESULTS IC50, 125I-CCK Brain

Row | Compound | IC50 [1, 7] [nM] | CCK antagonist activity [3] | further results
1 | O=C(Nc1cccc(-c2nn[nH]n2)c1)N[C@@H]1N=C(c2ccccc2)c2ccccc2N(CC(=O)N2CCCC2)C1=O [Example 2, N-{3-(R)-1,3-Dihydro-1-(pyrrolidinylcarbonyl)methyl-2-oxo-5-phenyl-1H-1,4-benzodiazepin-3(R)-yl}-N'-{[3-(1H-tetrazol-5-yl)phenyl]urea}] | 0.12 |  | 
2 | Cc1cccc(NC(=O)N[C@@H]2N=C(c3ccccc3)c3ccccc3N(C)C2=O)c1 [(R)-N-(2,3-dihydro-1-methyl-2-oxo-5-phenyl-1H-1,4-benzodiazepin-3-yl)-N^1-(3-methylphenyl) urea] |  |  | CCK-B receptor antagonism / selectivity [2]: potent and selective antagonist of CCK-B receptors
3 | CSCC[C@H](NC(=O)OC(C)(C)C)C(=O)N[C@@H](CC(=O)O)C(=O)N[C@@H](Cc1ccccc1)C(N)=O [Boc-Met-Asp-Phe-NH2] (Boc-Met-Asp-Phe-NH2) |  | can function as CCK antagonists | 
4 | Cc1cccc(NC(=O)NC2N=C(c3ccccc3)c3ccccc3N(Cc3ncc[nH]3)C2=O)c1 (stereo not shown) [Example 3, N-{1,3-Dihydro-1-[1H-2-imidazolyl]methyl-2-oxo-5-phenyl-1H-1,4-benzodiazepin-3-yl}-N'-{[3-methylphenyl]-urea}] |  |  | IC50 [1]: 58.9 nM; IC50 [4]: 258 nM
5 | Cc1cccc(NC(=O)NC2N=C(c3ccccc3)c3ccccc3N(Cc3c[nH]cn3)C2=O)c1 (stereo not shown) [Example 1, N-{1,3-Dihydro-1-[1H-4-imidazolyl]methyl-2-oxo-5-phenyl-1H-1,4-benzodiazepin-3-yl}-N'-{[3-methylphenyl]-urea}] | 7.9 |  | IC50 [5]: 3.6 nM; IC50 [4]: 11 nM
6 | CSCC[C@H](N)C(=O)N[C@@H](CC(=O)O)C(=O)N[C@@H](Cc1ccccc1)C(N)=O [Met-Asp-Phe-NH2] (H-Met-Asp-Phe-NH2) |  | can function as CCK antagonists | 
7 | CCCC(=O)Nc1nc2c(ncn2[C@@H]2O[C@@H]3COP(=O)(O)O[C@H]3[C@H]2OC(=O)CCC)c(=O)[nH]1 [dibutyryl cyclic GMP] |  | most potent | 
8 | Cc1cccc(NC(=O)NC2N=C(c3ccccc3)c3ccccc3N(Cc3n[nH]c(C)n3)C2=O)c1 (racemic) [Example 4, N-{1,3-Dihydro-1-[5-(2-methyl-1,3,4-triazolo)-methylene]-2-oxo-5-phenyl-1H-1,4-benzodiazepin-3-yl}-N'-{[3-methylphenyl]-urea}] | 10 |  | 
9 | CSCC[C@H](NC(=O)[C@H](Cc1ccc(OS(=O)(=O)O)cc1)NC(=O)OCc1ccccc1)C(=O)NCC(=O)N[C@@H](Cc1c[nH]c2ccccc12)C(=O)N[C@@H](CCSC)C(=O)N[C@@H](CC(=O)O)C(N)=O [Cbz-Tyr(SO3 H)-Met-Gly-Trp-Met-Asp-NH2] (Cbz-[sY]MGWMD-NH2) |  | can function as CCK antagonists; also recorded: partial agonist | 
10 | CCCN(CCC)C(=O)C(CCC(=O)O)NC(=O)c1ccccc1 (stereo not shown) [proglumide] |  |  | gastrin antagonist activity [6]: very weak in vitro antagonists
